Experiment [1] concerns Streptococcus sp. 'group A'. Put plainly: Streptococcus pyogenes SK(-)GAS viability under kanamycin – luminescence, BacTiterGlo, confirmation, counter-screen for streptokinase expression inhibitor project, dose response (AID 1900). Type of experiment: functional, organism-based. For orientation: A counterscreen serves to expose hits that act by an unwanted route or on another target.

The target of experiment [2] is T1, SUMO-activating enzyme (Homo sapiens, UniProt Q9UBT2). Put plainly: blockers of UBC9-mediated SUMO conjugation – biochemical, AlphaScreen, SUMOylation inhibitor project, confirmation (AID 2018). It counts as functional. On the technique in general: In Alpha technology, singlet oxygen from a donor bead excites a nearby acceptor bead.
Another experiment has as its target T2, Streptokinase A (Streptococcus pyogenes serotype M1, UniProt P10520).
T2 sequence (P10520 whole entry): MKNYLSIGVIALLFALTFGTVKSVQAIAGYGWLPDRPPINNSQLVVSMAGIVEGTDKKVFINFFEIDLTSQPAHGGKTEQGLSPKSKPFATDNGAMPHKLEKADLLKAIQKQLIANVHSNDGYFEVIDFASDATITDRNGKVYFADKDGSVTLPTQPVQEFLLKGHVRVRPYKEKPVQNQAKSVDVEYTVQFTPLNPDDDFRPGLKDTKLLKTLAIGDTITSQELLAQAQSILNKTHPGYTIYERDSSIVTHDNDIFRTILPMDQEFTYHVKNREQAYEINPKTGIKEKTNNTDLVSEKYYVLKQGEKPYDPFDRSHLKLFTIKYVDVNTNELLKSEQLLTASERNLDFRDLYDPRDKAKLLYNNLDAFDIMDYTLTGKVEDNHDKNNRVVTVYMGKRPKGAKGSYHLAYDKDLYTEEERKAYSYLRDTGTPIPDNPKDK
Put plainly: viability-normalized secreted streptokinase activity reduction – plasminogen activation absorbance, OD405, dose response (AID 1914).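 Also: secreted streptokinase activity via plasminogen activation per viability signal from cell pellet.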 It counts as functional, Streptococcus pyogenes M1 GAS.

The target in experiment [3] is T1, SUMO-activating enzyme. Put plainly: blockers of SAE1/SAE2–UBC9 SUMO transfer – biochemical, HTRF, uHTS, primary screen (AID 2006). Type of experiment: protein-complex assay. For orientation: In TR-FRET formats the signal depends on donor and acceptor labels being close together.
The target of another experiment is SUMO E1/E2 (Homo sapiens, UniProt P63279+Q9UBE0+Q9UBT2). Put plainly: SAR analysis of SUMOylation using HTRF in an in-Vitro dose response assay. [Related pubchem assays (depositor defined):AID2006, AID2011, AID2018, AID2069, AID2658]. It counts as functional.
In a further experiment the target is T3, X-box-binding protein 1 (Homo sapiens, UniProt P17861).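 Also: confirmatory dose-response counter-screen serving a CHOP assay.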
T3 sequence (P17861 whole entry): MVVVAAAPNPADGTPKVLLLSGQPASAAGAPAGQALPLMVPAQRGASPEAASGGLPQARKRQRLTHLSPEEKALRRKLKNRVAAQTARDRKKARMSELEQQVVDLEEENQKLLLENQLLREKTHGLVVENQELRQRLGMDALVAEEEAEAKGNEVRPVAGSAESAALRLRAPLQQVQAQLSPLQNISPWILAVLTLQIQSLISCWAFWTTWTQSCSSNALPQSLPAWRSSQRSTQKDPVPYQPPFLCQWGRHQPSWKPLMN
Type of experiment: functional, Cricetulus griseus.

In a further experiment the test system is INS1. Put plainly: INS-1E survival protection against cytokine death – cell-based, luminescence, retest, dose response (AID 449756).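 Also: cell death triggered by IL-1 beta plus TNF-alpha plus IFN-gamma mixture; protective hits raise ATP signal compared with cytokine alone wells.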 It counts as functional. The settings on record: Rattus norvegicus.
Experiment [4] has as its target T4, Long-chain-fatty-acid--AMP ligase FadD28 (Mycobacterium tuberculosis, UniProt P9WQ59).
T4 sequence (P9WQ59 whole entry): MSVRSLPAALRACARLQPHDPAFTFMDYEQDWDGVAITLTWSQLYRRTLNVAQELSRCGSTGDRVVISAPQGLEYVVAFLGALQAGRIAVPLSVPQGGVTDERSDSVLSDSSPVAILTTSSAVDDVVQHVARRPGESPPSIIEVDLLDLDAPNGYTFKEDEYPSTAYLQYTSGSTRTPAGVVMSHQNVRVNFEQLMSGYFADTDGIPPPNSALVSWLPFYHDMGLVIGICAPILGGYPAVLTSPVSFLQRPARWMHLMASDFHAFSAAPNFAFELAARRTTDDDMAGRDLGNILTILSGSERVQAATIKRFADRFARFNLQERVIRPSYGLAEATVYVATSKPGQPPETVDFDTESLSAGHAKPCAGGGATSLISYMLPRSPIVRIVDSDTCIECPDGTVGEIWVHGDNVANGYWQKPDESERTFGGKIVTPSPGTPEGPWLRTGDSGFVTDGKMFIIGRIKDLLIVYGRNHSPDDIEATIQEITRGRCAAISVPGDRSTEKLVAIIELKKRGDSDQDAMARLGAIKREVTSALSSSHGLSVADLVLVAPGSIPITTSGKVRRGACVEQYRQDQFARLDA
Put plainly: Fluorescence polarization aasay to screen for inhibitors that compete for the binding of FadD28 to a bisubstrate Measured in Biochemical System Using Plate Reader - 2147-01_Inhibitor_Dose_CherryPick_Activity. It counts as functional, Mycobacterium tuberculosis H37Rv.

The target of experiment [5] is E3 ubiquitin-protein ligase UHRF1 (Homo sapiens, UniProt Q96T88). Put plainly: Counterscreen for inhibitors of 5-meCpG-binding domain protein 2 (MBD2): TRFRET-based biochemical high throughput dose response assay to identify inhibitors of binding of ubiquitin-like with PHD and ring finger domains 1 (UHRF1) to methylated oligonucleotide.
The target of experiment [6] is T5, Tyrosyl-DNA phosphodiesterase 2 (Homo sapiens, UniProt O95551).
T5 sequence (O95551 whole entry): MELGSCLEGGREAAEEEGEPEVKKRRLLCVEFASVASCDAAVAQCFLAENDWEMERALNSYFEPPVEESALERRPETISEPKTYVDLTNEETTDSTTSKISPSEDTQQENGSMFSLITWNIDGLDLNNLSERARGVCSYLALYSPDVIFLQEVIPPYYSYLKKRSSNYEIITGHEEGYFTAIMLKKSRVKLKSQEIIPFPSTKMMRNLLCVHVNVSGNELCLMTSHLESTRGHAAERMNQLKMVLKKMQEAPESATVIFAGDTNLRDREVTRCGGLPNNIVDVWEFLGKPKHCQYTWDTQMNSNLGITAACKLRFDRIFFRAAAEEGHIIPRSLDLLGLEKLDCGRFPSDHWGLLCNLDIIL
Put plainly: potency against TDP2 phosphodiesterase activity – biochemical, epi absorbance, IC50, dose response (AID 743297).

Calls of active or inactive are those of the source.

What is called EC50 is the concentration giving half of the maximal effect. For orientation: IC50 means the midpoint of a concentration-inhibition curve. The term AC50 denotes the midpoint of the concentration-response curve, whichever way the signal moves.

T1 sequence (Q9UBE0 whole entry): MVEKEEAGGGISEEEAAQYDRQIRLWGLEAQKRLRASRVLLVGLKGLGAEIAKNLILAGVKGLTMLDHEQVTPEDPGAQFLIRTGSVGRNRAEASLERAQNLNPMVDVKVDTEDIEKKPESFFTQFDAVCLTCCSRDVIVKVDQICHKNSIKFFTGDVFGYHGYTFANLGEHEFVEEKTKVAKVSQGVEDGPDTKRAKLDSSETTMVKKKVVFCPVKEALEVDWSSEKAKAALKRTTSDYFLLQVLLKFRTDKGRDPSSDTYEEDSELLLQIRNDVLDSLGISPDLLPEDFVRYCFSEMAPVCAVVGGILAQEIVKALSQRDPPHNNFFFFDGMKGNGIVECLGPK
T1 sequence (Q9UBT2 whole entry): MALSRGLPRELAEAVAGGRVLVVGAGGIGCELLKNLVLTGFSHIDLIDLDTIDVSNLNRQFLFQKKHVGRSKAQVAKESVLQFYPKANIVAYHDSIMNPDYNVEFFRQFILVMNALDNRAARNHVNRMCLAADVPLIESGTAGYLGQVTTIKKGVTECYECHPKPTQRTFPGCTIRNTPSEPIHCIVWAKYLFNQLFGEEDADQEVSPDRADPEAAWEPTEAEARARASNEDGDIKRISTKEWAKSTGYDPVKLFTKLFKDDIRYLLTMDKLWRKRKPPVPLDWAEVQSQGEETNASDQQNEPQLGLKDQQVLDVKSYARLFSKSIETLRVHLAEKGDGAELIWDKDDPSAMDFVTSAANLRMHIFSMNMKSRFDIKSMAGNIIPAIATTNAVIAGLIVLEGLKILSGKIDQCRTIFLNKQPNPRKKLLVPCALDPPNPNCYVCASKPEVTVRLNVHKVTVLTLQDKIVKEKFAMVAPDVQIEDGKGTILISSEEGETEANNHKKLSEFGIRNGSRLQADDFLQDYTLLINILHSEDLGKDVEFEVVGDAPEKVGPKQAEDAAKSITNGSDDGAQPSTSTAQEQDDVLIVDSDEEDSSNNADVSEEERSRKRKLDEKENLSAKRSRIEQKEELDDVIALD
Chain of E3 ubiquitin-protein ligase UHRF1 (Q96T88 whole entry, the tested form may be a part): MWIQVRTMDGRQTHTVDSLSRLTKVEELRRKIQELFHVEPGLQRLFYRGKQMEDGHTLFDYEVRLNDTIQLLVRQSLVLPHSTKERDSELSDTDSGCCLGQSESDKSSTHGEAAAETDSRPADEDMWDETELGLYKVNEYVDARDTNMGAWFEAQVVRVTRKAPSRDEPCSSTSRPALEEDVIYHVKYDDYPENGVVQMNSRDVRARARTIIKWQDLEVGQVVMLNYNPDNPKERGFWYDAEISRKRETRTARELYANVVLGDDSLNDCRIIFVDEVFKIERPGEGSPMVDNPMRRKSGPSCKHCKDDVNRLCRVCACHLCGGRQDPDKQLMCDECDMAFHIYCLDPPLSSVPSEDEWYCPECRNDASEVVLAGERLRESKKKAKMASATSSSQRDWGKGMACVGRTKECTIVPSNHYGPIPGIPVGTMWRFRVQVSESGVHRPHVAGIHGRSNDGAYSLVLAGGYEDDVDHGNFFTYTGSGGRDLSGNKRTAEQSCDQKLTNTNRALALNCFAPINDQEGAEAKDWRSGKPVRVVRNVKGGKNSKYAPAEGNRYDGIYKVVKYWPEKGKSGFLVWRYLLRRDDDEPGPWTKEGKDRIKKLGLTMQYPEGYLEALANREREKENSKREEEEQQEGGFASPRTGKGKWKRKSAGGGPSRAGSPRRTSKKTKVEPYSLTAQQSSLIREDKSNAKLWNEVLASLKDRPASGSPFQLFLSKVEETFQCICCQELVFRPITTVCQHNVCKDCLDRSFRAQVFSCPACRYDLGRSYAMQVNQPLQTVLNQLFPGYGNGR
Chain of SUMO E1/E2 (Q9UBE0 whole entry): as the sequence (Q9UBE0 whole entry) above
Chain of SUMO E1/E2 (Q9UBT2 whole entry): as the sequence (Q9UBT2 whole entry) above
Chain of SUMO E1/E2 (P63279 whole entry): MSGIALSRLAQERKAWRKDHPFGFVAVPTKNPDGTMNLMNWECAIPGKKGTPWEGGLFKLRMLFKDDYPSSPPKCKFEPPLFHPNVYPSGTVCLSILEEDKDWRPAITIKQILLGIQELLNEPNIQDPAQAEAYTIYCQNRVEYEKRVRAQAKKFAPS

`CCCCn1c(NS(=O)(=O)c2ccccc2)c(S(=O)(=O)c2ccc(C)cc2)c2nc3ccccc3nc21`: the concentration giving a half-maximal response (EC50) in experiment [1] was 3.56 µM (active); at Streptokinase A, 18.2 µM (active). For the same compound, the 50% inhibitory concentration (IC50) at SUMO-activating enzyme [2] was 0.68 µM (active); on SUMO-activating enzyme [3], 1.83 µM (active); on SUMO E1/E2, 4.2 µM (active); in experiment [5] it was > 43.8 µM (inactive); in experiment [6] it was 7.83 µM (active). Also, on X-box-binding protein 1, the “Absolute IC50 (XBP1)” value is 10 µM. Further, the AC50 in the experiment on INS1 was 20.5 µM (active); in [4] it was 46.5 µM (active).
